From publication PMC10658920 (The Journal of Pharmacology and Experimental Therapeutics, 2023)
Values joined by “and” are separate entries in the source; they are usually repeats but may differ in a detail not shown here. Equal values may be shown once. “Also recorded” adds a separate entry of the source. Read-outs that look alike come from different tables or passages of the source.

Experiments:
[1] = Clinical pharmacokinetic study, plasma and urine, noncompartmental analysis; conditions: for tmax: median [range]
CYP3A [2] = conditions: cited from earlier work
[3] = Baseline: oral midazolam 2.5 mg alone; median [range]; ref Nguyen et al., 2021; cited from earlier work
CYP3A [4] = test: Allosterism of midazolam hydroxylation in HIMs by berberine; conditions: for effect on 1’-hydroxymidazolam formation: reversible design
[5] = both, human, in vivo
[6] = Apparent permeability, apical to basolateral, Caco-2 cell monolayers; format: in vitro ADME; conditions: human
[7] = Dissolution of goldenseal capsules in FaSSIF; format: physicochemical; conditions: two goldenseal capsules in 250 ml FaSSIF, within 20 minutes
CYP3A [8] = conditions: HLMs, 2020, cited from earlier work
CYP3A [9] = test: Time-dependent inhibition of midazolam 1’-hydroxylation in HIMs; conditions: HIMs
[10] = as above; conditions: microsomal incubation mixture, 37 °C, aqueous buffer, kinetic from dmso stock
CYP3A [11] = test: IC50 shift experiment, midazolam 1’-hydroxylation in human intestinal microsomes
clinical = conditions: both, human, in vivo, AUC0–12.5h, Observed
[12] = Baseline: oral midazolam 2.5 mg alone, geometric mean [90% CI]
[13] = 6-hour blood collection, ref Gurley et al., 2008

OCc1ncc2n1-c1ccc(Cl)cc1C(c1ccccc1F)=NC2 [1’-Hydroxymidazolam, 1’-hydroxymidazolam]
AUC0–12h [1, 12]: 29.0 [24.4–34.4] nM*h | AUCinf [1, 12]: 33.1 [27.9–39.0] nM*h | CLR [1, 12]: 0.17 [0.14–0.20] n = 15 l/h | Cmax [1, 12]: 0.0123 µM | MP ratio (metabolite AUC0–12h to midazolam AUC0–12h) [1, 12]: 0.47 [0.40–0.54] | t1/2 [1, 12]: 6.25 [5.27–7.40] h | tmax ([1]; Baseline: oral midazolam 2.5 mg alone): 0.67 [0.33–1.00] h | tmax ([1]; Chronic exposure: goldenseal 1 g thrice daily for 6 days, midazolam 2.5 mg oral): 0.67 [0.33–1.50] h

Cc1ncc2n1-c1ccc(Cl)cc1C(c1ccccc1F)=NC2O (centres unmarked) [4-Hydroxymidazolam, 4-hydroxymidazolam]
CLR [1, 12]: Concentrations of metabolites in urine were below the detectable limit | MP ratio (metabolite AUC0–12h to midazolam AUC0–12h) [1, 12]: 0.045 [0.039–0.051] | AUC(0-t) ([1]; both, human, plasma, po, 2.5 mg, AUC0–12h, Baseline: oral midazolam 2.5 mg alone, geometric mean [90% CI]): 2.78 nM·h | half-life ([1]; both, human, plasma, po, 2.5 mg, t1/2, Baseline: oral midazolam 2.5 mg alone, geometric mean [90% CI]): 1.68 h | tmax ([1]; both, human, plasma, po, 2.5 mg, tmax, Baseline: oral midazolam 2.5 mg alone): 1 h | tmax ([1]; both, human, plasma, po, tmax, Chronic exposure: goldenseal 1 g thrice daily for 6 days, midazolam 2.5 mg oral): 1 h

Cc1ncc2n1-c1ccc(Cl)cc1C(c1ccccc1F)=NC2 [Midazolam]
midazolam half-life at baseline (CYP3A [2]; [13]): 2.0 h | midazolam half-life in the presence of goldenseal (CYP3A [2]; [13]): 3.1 h | tmax [3]: 0.67 [0.33–1.00] h | CL renal ([1]; both, human, plasma and urine, po): 1.08 mL/min

COc1ccc2cc3[n+](cc2c1OC)CCc1cc2c(cc1-3)OCO2 [berberine]
effect on midazolam 4-hydroxylation (CYP3A [4]; berberine 5–100 μM): inhibited | effect on 1’-hydroxymidazolam/4-hydroxymidazolam ratio (CYP3A [4]; particularly at midazolam ≤5 μM): concentration-dependent increase | effect on 1’-hydroxymidazolam formation (CYP3A [4]; midazolam ≤5 μM): activated | effect on 1’-hydroxymidazolam formation (CYP3A [4]; midazolam ≥50 μM): inhibited | AUC0–12.5h, Observed [5]: 7.81 [6.17–9.89] nM*h | increase in midazolam AUC (CYP3A [2]; berberine 300 mg thrice daily × 14 days, ref Guo et al., 2012): 40% | Papp at 10 μM [6]: 1.8 nm/s | total content dissolved [7]: More than 80% | TDI of CYP3A activity (midazolam 1’-hydroxylation), in words (CYP3A [8]; ref Chatterjee and Franklin, 2003, McDonald et al.): demonstrated TDI | IC50 (reversible inhibition) (CYP3A [8]; ref McDonald et al.): unattainable | kinact/KI (CYP3A [8]; ref McDonald et al.): 21.7 M⁻¹ s⁻¹ | AUC(0-inf) ([1]; both, human, plasma, oral): 46.7 nM·h | inhibition of midazolam 1’-hydroxylation (in words) (CYP3A [9]): concentration-dependent and time-dependent inhibition | kinact/KI (CYP3A [9]): 4.07 M⁻¹ s⁻¹ and ~4 M⁻¹ s⁻¹ | KI (CYP3A [9]; time-dependent inhibition of midazolam 1’-hydroxylation): > 250 µM and 250 µM | kinact (CYP3A [9]; human, human intestinal microsomes, probe midazolam (40 μM), 1'-hydroxylation, kinact, time-dependent inhibition of midazolam 1’-hydroxylation): ~0.001 s⁻¹ | solubility [10]: ≤ 500 µM | leftward shift in IC50 after preincubation with NADPH (CYP3A [11]; HIMs): not observed | IC50, midazolam 1’-hydroxylation (CYP3A [11]; HIMs 0.05 mg/ml, 30 min preincubation in absence of NADPH, 4 μM midazolam): apparent activation; also recorded: unattainable | AUC(0-t) (clinical): 4.58 nM·h
